Tests used:
Format in all cases: cell-based
[1] = target: T1, RXRγ (Mus musculus, UniProt P28705); assay: co-transfection (cis-trans) assay in CV-1 cells, RXRγ; conditions: for Emax at 10 µM: CV-1, maximal response relative to all-trans-retinoic acid at 10^-5 M, read-out: Efficacy RXRγ; for EC50: CV-1 cells, luciferase reporter, concentration giving 50% of maximal observed response, read-out: Potency (nM) RXRγ
T1 construct: expressed in transfected cells; host or cells: CV-1 (monkey kidney)
T1 sequence (P28705 1-463): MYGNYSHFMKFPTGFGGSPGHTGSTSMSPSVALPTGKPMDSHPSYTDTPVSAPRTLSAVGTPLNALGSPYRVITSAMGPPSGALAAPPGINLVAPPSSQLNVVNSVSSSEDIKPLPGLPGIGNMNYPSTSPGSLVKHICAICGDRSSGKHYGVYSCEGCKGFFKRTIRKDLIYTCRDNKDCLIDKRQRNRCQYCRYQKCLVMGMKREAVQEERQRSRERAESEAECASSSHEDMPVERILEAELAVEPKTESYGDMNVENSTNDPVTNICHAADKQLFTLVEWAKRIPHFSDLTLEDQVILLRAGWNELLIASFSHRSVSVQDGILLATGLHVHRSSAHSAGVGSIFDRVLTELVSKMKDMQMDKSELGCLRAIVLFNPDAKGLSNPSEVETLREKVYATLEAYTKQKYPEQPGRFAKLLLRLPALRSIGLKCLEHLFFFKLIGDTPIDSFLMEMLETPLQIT
Excerpt: (§1) The co-transfection assay provides a mechanism to evaluate the ability of a compound to modulate the transcription response initiated by an intracellular receptor. […] Berger et al., J. Steroid Biochem. Molec.
(§2) Briefly, the co-transfection assay involves the introduction of two plasmids by transient transfection into a retinoid receptor-negative mammalian cell background. The first plasmid contains a retinoid receptor cDNA and directs constitutive expression of the encoded receptor. The second plasmid contains a cDNA that encodes for a readily quantifiable protein, e.g., firefly luciferase or chloramphenicol acetyl transferase (CAT), under control of a promoter containing a retinoid acid response element, which confers retinoid dependence on the transcription of the reporter. In this co-transfection assay, all retinoid receptors respond to all-trans-retinoic acid in a similar fashion. This assay can be used to accurately measure efficacy and potency of retinoic acid and synthetic retinoids as ligands that interact with the individual retinoid receptor subtypes.
(§3) Accordingly, synthetic retinoid compounds of the current invention were evaluated for their interaction with retinoid receptor subtypes using the co-transfection assay in which CV-1 cells were co-transfected with one of the retinoid receptor subtypes, a reporter construct, and an internal control to allow normalization of the response for transfection efficiency. The following example is illustrative.
(§4) Retinoids: All-trans-retinoic acid (RA) and 13-cis-retinoic acid (13-cis-RA) were obtained from Sigma. […] Retinoids were dissolved in dimethylsulfoxide for use in the transcriptional activation assays.
(§5) Co-transfection Assay In CV-1 Cells: A monkey kidney cell line, CV-1, was used in the cis-trans assay. Cells were transfected with two plasmids. […] The cis-vector contains an easily assayable gene product, in this case the firefly luciferase, coupled to a retinoid-responsive promoter, i.e., an RARE or RXRE. Addition of retinoic acid or an appropriate synthetic retinoid results in the formation of a retinoid-RAR or -RXR complex that activates the expression of luciferase gene, causing light to be emitted from cell extracts. The level of luciferase activity is directly proportional to the effectiveness of the retinoid-receptor complex in activating gene expression. This sensitive and reproducible co-transfection approach permits the identification of retinoids that interact with the different receptor isoforms.
(§6) Cells were cultured in DMEM supplemented with 10% charcoal resin-stripped fetal bovine serum, and experiments were conducted in 96-well plates. […] Cells were transfected for 6 h and then washed to remove the precipitate. The cells were then incubated for 36 h with or without retinoid. […]

[2] = target: T2, RARα (Homo sapiens, UniProt P10276); assay: co-transfection (cis-trans) assay in CV-1 cells, RARα; conditions: for Emax: CV-1, maximal response relative to all-trans-retinoic acid at 10^-5 M, read-out: Efficacy RARα; for EC50: CV-1 cells, luciferase reporter, concentration giving 50% of maximal observed response, read-out: Potency (nM) RARα
T2 construct: expressed in transfected cells; host or cells: CV-1 (monkey kidney)
T2 sequence (P10276 1-462): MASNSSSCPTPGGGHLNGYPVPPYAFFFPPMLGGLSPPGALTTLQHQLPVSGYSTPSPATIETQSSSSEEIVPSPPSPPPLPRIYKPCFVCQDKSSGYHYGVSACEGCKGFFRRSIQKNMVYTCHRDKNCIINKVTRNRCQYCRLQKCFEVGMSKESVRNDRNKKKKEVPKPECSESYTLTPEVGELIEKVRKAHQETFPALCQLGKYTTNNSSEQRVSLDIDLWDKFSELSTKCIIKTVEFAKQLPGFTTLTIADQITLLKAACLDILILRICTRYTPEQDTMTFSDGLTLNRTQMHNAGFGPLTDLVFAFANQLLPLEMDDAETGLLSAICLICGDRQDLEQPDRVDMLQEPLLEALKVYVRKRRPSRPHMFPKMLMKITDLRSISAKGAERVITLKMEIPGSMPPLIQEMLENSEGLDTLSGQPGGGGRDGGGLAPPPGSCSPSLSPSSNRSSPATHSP
Excerpt: as §1, §2, §3, §4, §5, §6

[3] = target: T3, RARγ (Homo sapiens, UniProt P13631); assay: co-transfection (cis-trans) assay in CV-1 cells, RARγ; conditions: for Emax: CV-1, maximal response relative to all-trans-retinoic acid at 10^-5 M, read-out: Efficacy RARγ; for EC50: CV-1 cells, luciferase reporter, concentration giving 50% of maximal observed response, read-out: Potency (nM) RARγ
T3 construct: expressed in transfected cells; host or cells: CV-1 (monkey kidney)
T3 sequence (P13631 1-454): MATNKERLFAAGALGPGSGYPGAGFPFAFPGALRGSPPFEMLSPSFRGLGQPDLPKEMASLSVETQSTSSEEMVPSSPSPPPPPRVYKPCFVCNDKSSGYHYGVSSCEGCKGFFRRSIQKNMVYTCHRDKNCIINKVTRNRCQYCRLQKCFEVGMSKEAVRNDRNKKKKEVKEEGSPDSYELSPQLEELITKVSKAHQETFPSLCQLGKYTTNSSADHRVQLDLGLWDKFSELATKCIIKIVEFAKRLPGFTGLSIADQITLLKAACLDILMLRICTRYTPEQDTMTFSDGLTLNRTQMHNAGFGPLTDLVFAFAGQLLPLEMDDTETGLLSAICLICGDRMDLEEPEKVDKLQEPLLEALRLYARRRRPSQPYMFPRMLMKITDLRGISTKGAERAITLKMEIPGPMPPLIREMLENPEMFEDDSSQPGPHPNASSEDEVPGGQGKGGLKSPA
Excerpt: as §1, §2, §3, §4, §5, §6

Row | Emax at 10 µM [1] [%] | EC50 [1] [nM] | Emax [2] [%] | EC50 [2] [nM] | Emax [3] [%] | EC50 [3] [nM] | Structure (SMILES)
1 | 91 | 290 | < 2 | > 10000 | < 2 | > 10000 | C=C(c1ccc(C(=O)O)cc1)c1ccc(C(C)(C)C)cc1C [Compound 133, 4-[1-(2-methyl-4-t-butylphenyl)ethenyl]benzoic acid]
2 | 50 | 190 | < 2 | > 10000 | < 2 | > 10000 | Cc1cc(C(C)(C)C)ccc1C(=NO)c1ccc(C(=O)O)cc1 [Compound 137, 4-[(2-methyl-4-t-butylphenyl)carbonyl]benzoic acid oxime]

From patent US6043279A, “Compounds having selective activity for retinoid X receptors, and means for modulation of processes mediated by retinoid X receptors” (priority 1997, dated 2000)
